Results taken from ChEMBL document CHEMBL5154856, “Targeting the tumor microenvironment by an enzyme-responsive prodrug of tubulin destabilizer for triple-negative breast cancer therapy with high safety” (Eur J Med Chem, 2022).
Values belong to the compound of their own block, whether it stands above or below them. Activity calls are given as the source filed them. The calls are words filed in the database; no cut-off is given here.

Experiments:
[1] = Chemical stability of compound at pH 7.4 in PBS buffer at 1 mg incubated for 48 hrs by HPLC analysis; format: physicochemical; conditions: pH 7.4, 48 h
[2] = Chemical stability of compound at pH 7.4 in bovine serum at 1 mg incubated for 48 hrs by HPLC analysis; format: ADME, cell-free; conditions: cattle, pH 7.4, 48 h
[3] = Stability of compound in phosphate buffer at pH 7.4 assessed as Escherichia coli beta-glucuronidase mediated compound cleavage at 1.2 mg measured after 2 hrs by HPLC analysis; format: ADME; conditions: pH 7.4, 2 h
MCF7 [4] = assay: Antiproliferative activity against human MCF7 cells assessed as inhibition of cell growth incubated for 48 hrs in absence of beta-glucuronidase by MTT assay; format: functional, cell-based; conditions: MCF7, 48 h
HeLa [5] = assay: Antiproliferative activity against human HeLa cells assessed as inhibition of cell growth incubated for 48 hrs in presence of beta-glucuronidase by MTT assay; format: functional, cell-based
HeLa [6] = assay: Antiproliferative activity against human HeLa cells assessed as inhibition of cell growth incubated for 48 hrs in absence of beta-glucuronidase by MTT assay; format: functional, cell-based
SK-OV-3 [7] = assay: Antiproliferative activity against human SK-OV-3 cells assessed as inhibition of cell growth incubated for 48 hrs in absence of beta-glucuronidase by MTT assay; format: functional, cell-based; conditions: SK-OV-3, 48 h
SK-OV-3 [8] = assay: Antiproliferative activity against human SK-OV-3 cells assessed as inhibition of cell growth incubated for 48 hrs in presence of beta-glucuronidase by MTT assay; format: functional, cell-based; conditions: SK-OV-3, 48 h
[9] = Metabolic stability in rat liver microsomes assessed as half life at 10 mM measured up to 60 mins in presence of NADPH by LC-MS/MS analysis; format: ADME, Microsome
[10] = Metabolic stability in rat liver microsomes assessed as intrinsic clearance in microsomes at 10 mM measured up to 60 mins in presence of NADPH by LC-MS/MS analysis; format: ADME, Microsome; conditions: read-out: CLH
MCF7 [11] = assay: Antiproliferative activity against human MCF7 cells assessed as inhibition of cell growth incubated for 48 hrs in presence of beta-glucuronidase by MTT assay; format: functional, cell-based; conditions: MCF7, 48 h
[12] = Aqueous solubility of compound in PBS at pH 7.4 at 1 mg incubated for 10 mins by HPLC analysis; format: physicochemical
[13] = Stability of compound in phosphate buffer at pH 7.4 assessed as Escherichia coli beta-glucuronidase mediated compound cleavage at 1.2 mg measured after 10 mins by HPLC analysis; format: ADME; conditions: pH 7.4, 10 min
[14] = Metabolic stability in rat liver microsomes assessed as parent compound remaining at 10 mM measured up to 60 mins in presence of NADPH by LC-MS/MS analysis; format: ADME, Microsome; conditions: read-out: Stability
MDA-MB-231 [15] = assay: Antiproliferative activity against human MDA-MB-231 cells assessed as inhibition of cell growth incubated for 48 hrs in presence of beta-glucuronidase by MTT assay; format: functional, cell-based; conditions: MDA-MB-231, 48 h
[16] = Metabolic stability in rat liver microsomes assessed as intrinsic clearance in liver at 10 mM measured up to 60 mins in presence of NADPH by LC-MS/MS analysis; format: ADME, Microsome; conditions: read-out: CLH
MDA-MB-231 [17] = assay: Antiproliferative activity against human MDA-MB-231 cells assessed as inhibition of cell growth incubated for 48 hrs in absence of beta-glucuronidase by MTT assay; format: functional, cell-based; conditions: MDA-MB-231, 48 h
[18] = Toxicity in nude mouse xenografted with human MDA-MB-231 cells assessed as pathological changes in kidney at 3.75 mg/kg, iv administered every 2 days for 14 days by H and E staining based assay; format: organism-based; conditions: in vivo, 336 h, time 14 day
[19] = Acute toxicity in BALB/c mouse assessed as animal survival at 12.5 mg/kg, iv administered as single dose measured after 14 days; format: organism-based; conditions: in vivo, time 14 day
MCF7 [20] = assay: Antiproliferative activity against human MCF7 cells assessed as inhibition of cell growth incubated for 48 hrs by MTT assay; format: functional, cell-based; conditions: MCF7, 48 h
[21] = Acute toxicity in BALB/c mouse assessed as lethal dose administered intravenously as single dose and measured after 14 days; conditions: in vivo, route iv, time 14 day
[22] = Toxicity in nude mouse assessed as effect on platelet distribution width at 3.75 mg/kg, iv administered qd for 3 days (reference value: 20.2); format: organism-based; conditions: in vivo, 72 h, time 3 day
[23] = Toxicity in nude mouse assessed as effect on mean corpuscular hemoglobin concentration at 3.75 mg/kg, iv administered qd for 3 days (reference value: 473 g/L); format: organism-based; conditions: in vivo, 72 h, time 3 day
[24] = Toxicity in nude mouse assessed as effect on globulin level in serum at 3.75 mg/kg, iv administered qd for 3 days (reference value: 16.1 g/L); format: organism-based; conditions: in vivo, 72 h, time 3 day
MDA-MB-231 [25] = assay: Antitumor activity against mouse xenografted with human MDA-MB-231 cells assessed as increase in tumor necrosis area at 3.75 mg/kg, iv administered every 2 days for 14 days by H and E staining based assay; format: functional, organism-based; conditions: time 14.0 day
[26] = Toxicity in nude mouse assessed as effect on neutrophil level at 3.75 mg/kg, iv administered qd for 3 days (reference value: 7.40 %); format: organism-based; conditions: in vivo, 72 h, time 3 day
[27] = Acute toxicity in BALB/c mouse assessed as animal survival at 100 mg/kg, iv administered as single dose measured after 14 days; format: organism-based; conditions: in vivo, time 14 day
[28] = Cardiotoxicity in nude mouse assessed as abnormal spikes at 5 mg/kg, iv administered once daily for 3 days by ECG analysis; format: toxicity, organism-based; conditions: in vivo, 72 h, time 3 day
[29] = Toxicity in nude mouse assessed as effect on albumin level in serum at 3.75 mg/kg, iv administered qd for 3 days (reference value: 31.2 g/L); format: organism-based; conditions: in vivo, 72 h, time 3 day
[30] = Toxicity in nude mouse xenografted with human MDA-MB-231 cells assessed as pathological changes in spleen at 3.75 mg/kg, iv administered every 2 days for 14 days by H and E staining based assay; format: organism-based; conditions: in vivo, 336 h, time 14 day
[31] = Toxicity in nude mouse assessed as effect on mean corpuscular hemoglobin level at 3.75 mg/kg, iv administered qd for 3 days (reference value: 22.3 pg); format: organism-based; conditions: in vivo, 72 h, time 3 day
[32] = Toxicity in nude mouse assessed as effect on platelet count at 3.75 mg/kg, iv administered qd for 3 days (reference value: 21 10^9/L); format: organism-based; conditions: in vivo, 72 h, time 3 day
[33] = Toxicity in nude mouse assessed as effect on eosinophil level at 3.75 mg/kg, iv administered qd for 3 days (reference value: 6 %); format: organism-based; conditions: in vivo, 72 h, time 3 day
[34] = Cardiotoxicity in nude mouse assessed as prolonged QT intervals at 5 mg/kg, iv administered once daily for 3 days by ECG analysis; format: toxicity, organism-based; conditions: in vivo, 72 h, time 3 day
[35] = Acute toxicity in BALB/c mouse assessed as animal survival at 70 mg/kg, iv administered as single dose measured after 14 days; format: organism-based; conditions: in vivo, time 14 day
[36] = Toxicity in nude mouse assessed as effect on total protein level in serum at 3.75 mg/kg, iv administered qd for 3 days (reference value: 47.3 g/L); format: organism-based; conditions: in vivo, 72 h, time 3 day
[37] = Acute toxicity in BALB/c mouse assessed as animal survival at 25 mg/kg, iv administered as single dose measured after 14 days; format: organism-based; conditions: in vivo, time 14 day
MDA-MB-231 [38] = assay: Antiproliferative activity against human MDA-MB-231 cells assessed as inhibition of cell growth incubated for 48 hrs by MTT assay; format: functional, cell-based; conditions: MDA-MB-231, 48 h
[39] = Toxicity in nude mouse assessed as effect on total bilirubin level in serum at 3.75 mg/kg, iv administered qd for 3 days (reference value: 3.3 micromol/L); format: organism-based; conditions: in vivo, 72 h, time 3 day
[40] = Toxicity in nude mouse xenografted with human MDA-MB-231 cells assessed as pathological changes in liver at 3.75 mg/kg, iv administered every 2 days for 14 days by H and E staining based assay; format: organism-based; conditions: in vivo, 336 h, time 14 day
[41] = Toxicity in nude mouse assessed as effect on aspartate aminotransferase level in serum at 3.75 mg/kg, iv administered qd for 3 days (reference value: 424 U/L); format: organism-based; conditions: in vivo, 72 h, time 3 day
[42] = Acute toxicity in BALB/c mouse assessed as animal survival at 50 mg/kg, iv administered as single dose measured after 14 days; format: organism-based; conditions: in vivo, time 14 day
[43] = Toxicity in nude mouse assessed as effect on alkaline phosphatase level in serum at 3.75 mg/kg, iv administered qd for 3 days (reference value: 66 U/L); format: organism-based; conditions: in vivo, 72 h, time 3 day
[44] = Toxicity in nude mouse assessed as effect on basophil level at 3.75 mg/kg, iv administered qd for 3 days (reference value: 11.70 %); format: organism-based; conditions: in vivo, 72 h, time 3 day
[45] = Toxicity in nude mouse assessed as effect on gamma-glutamyl transpeptidase level in serum at 3.75 mg/kg, iv administered qd for 3 days (Rvb < 2 U/L); format: organism-based; conditions: in vivo, 72 h, time 3 day
[46] = Toxicity in nude mouse assessed as animal death at 5 mg/kg, iv administered 3 consecutive dosages; format: organism-based; conditions: in vivo
[47] = Toxicity in nude mouse assessed as effect on lymphocyte level at 3.75 mg/kg, iv administered qd for 3 days (reference value: 60.90 %); format: organism-based; conditions: in vivo, 72 h, time 3 day
[48] = Toxicity in nude mouse assessed as effect on white blood cell count at 3.75 mg/kg, iv administered qd for 3 days (reference value: 0.02 10^9/L); format: organism-based; conditions: in vivo, 72 h, time 3 day
[49] = Toxicity in nude mouse assessed as effect on alanine aminotransferase level in serum at 3.75 mg/kg, iv administered qd for 3 days (reference value: 308 U/L); format: organism-based; conditions: in vivo, 72 h, time 3 day
[50] = Toxicity in nude mouse assessed as effect on monocytes level at 3.75 mg/kg, iv administered qd for 3 days (reference value: 37.10 %); format: organism-based; conditions: in vivo, 72 h, time 3 day
HeLa [51] = assay: Antiproliferative activity against human HeLa cells assessed as inhibition of cell growth incubated for 48 hrs by MTT assay; format: functional, cell-based
SK-OV-3 [52] = assay: cells; conditions: Homo sapiens, SK-OV-3, 48 h
Description: Antiproliferative activity against human SK-OV-3 cells assessed as inhibition of cell growth incubated for 48 hrs by MTT assay

Stability [1]: Stable
Stability [2]: Stable
Stability [3]: Unstable
Structure (SMILES): COc1cc(C(=O)c2c(N)oc3c(OCc4ccc(O[C@@H]5O[C@H](C(=O)O)[C@@H](O)[C@H](O)[C@H]5O)cc4)c(OC)ccc23)cc(OC)c1OC

IC50 (MCF7 [4]): > 50000 nM
IC50 (HeLa [5]): 14.3 nM
IC50 (HeLa [6]): > 50000 nM
IC50 (SK-OV-3 [7]): > 50000 nM
IC50 (SK-OV-3 [8]): 22.6 nM
half-life [9]: > 2.42 h
microsomal CLint [10]: < 9.6 µL/min/mg
IC50 (MCF7 [11]): 15.5 nM
solubility at 10 min [12]: > 40 mg/mL
Stability [13]: Unstable
remaining at 1 h [14]: 84.6%
IC50 (MDA-MB-231 [15]): 3.5 nM
Stability [1]: Stable
Stability [2]: Stable
CLint scaled [16]: < 38 mL/min/kg
IC50 (MDA-MB-231 [17]): > 50000 nM
Structure (SMILES): COc1ccc([C@H]2[C@H](CF)C(=O)N2c2cc(OC)c(OC)c(OC)c2)cc1OCc1ccc(O[C@@H]2O[C@H](C(=O)O)[C@@H](O)[C@H](O)[C@H]2O)cc1

Structure (SMILES): COc1ccc([C@H]2[C@H](CO)C(=O)N2c2cc(OC)c(OC)c(OC)c2)cc1O (racemic)
Activity [18]: Non-Toxic
survival at 336 h [19]: 100%
IC50 (MCF7 [20]): 14.8 nM
LD50 at 336 h [21]: 65 mg/kg
Activity [22]: 18.5
Activity [23]: 488 g/L
Activity [24]: 15.7 g/L
Activity (MDA-MB-231 [25]): Active
Activity [26]: 7.4%
survival at 336 h [27]: 0%
Activity [28]: Toxic
Activity [29]: 33.1 g/L
Activity [30]: Non-Toxic
Activity [31]: 23.5 pg
Activity [32]: 99 10^9/L
Activity [33]: 18.2%
Activity [34]: Toxic
survival at 336 h [35]: 37.5%
Activity [36]: 48.8 g/L
survival at 336 h [37]: 100%
IC50 (MDA-MB-231 [38]): 11.9 nM
Activity [39]: 6.3 µmol/L
Activity [40]: Non-Toxic
Activity [41]: 503 U/L
survival at 336 h [42]: 87.5%
Activity [43]: 142 U/L
Activity [44]: 4.7%
Activity [45]: < 2 U/L
Activity [46]: Toxic
Activity [47]: 66.7%
Activity [48]: 0.05 10^9/L
Activity [49]: 196 U/L
Activity [50]: 7.7%
IC50 (HeLa [51]): 5.9 nM

IC50 (MCF7 [20]): 12.5 nM
IC50 (SK-OV-3 [52]): 3.8 nM
IC50 (MDA-MB-231 [38]): 1.1 nM
IC50 (HeLa [51]): 6.7 nM
Structure (SMILES): COc1ccc([C@H]2[C@H](CF)C(=O)N2c2cc(OC)c(OC)c(OC)c2)cc1O

Stability [1]: Stable
Stability [2]: Stable
Stability [3]: Unstable
Structure (SMILES): COc1ccc([C@H]2[C@H](CO)C(=O)N2c2cc(OC)c(OC)c(OC)c2)cc1OCc1ccc(O[C@@H]2O[C@H](C(=O)O)[C@@H](O)[C@H](O)[C@H]2O)c([N+](=O)[O-])c1
